In PubChem BioAssay (NCI):
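A five-concentration, 48-hour dose response in 96-well plates underlies each endpoint, interpolated linearly between surrounding concentrations. TGI: total growth inhibition.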

Legend:
Experiment in all cases: NCI tumour cell line growth inhibition, 48 h
786-0 renal = tested on: 786-0 renal
A498 renal = tested on: A498 renal
A549 NSCLC = tested on: A549 NSCLC
ACHN renal = tested on: ACHN renal
CAKI-1 renal = tested on: CAKI-1 renal
CCRF-CEM leukemia = tested on: CCRF-CEM leukemia
COLO 205 colon = tested on: COLO 205 colon
DLD-1 colon = tested on: DLD-1 colon
DMS 114 small cell lung = tested on: DMS 114 small cell lung
DMS 273 small cell lung = tested on: DMS 273 small cell lung
EKVX NSCLC = tested on: EKVX NSCLC
HCC-2998 colon = tested on: HCC-2998 colon
HCT-15 colon = tested on: HCT-15 colon
HL-60(TB) leukemia = tested on: HL-60(TB) leukemia
HOP-18 NSCLC = tested on: HOP-18 NSCLC
HOP-62 NSCLC = tested on: HOP-62 NSCLC
IGROV1 ovarian = tested on: IGROV1 ovarian
K-562 leukemia = tested on: K-562 leukemia
KM12 colon = tested on: KM12 colon
LOX IMVI melanoma = tested on: LOX IMVI melanoma
LXFL 529 NSCLC = tested on: LXFL 529 NSCLC
M14 melanoma = tested on: M14 melanoma
MALME-3M melanoma = tested on: MALME-3M melanoma
MOLT-4 leukemia = tested on: MOLT-4 leukemia
NCI-H23 lung = tested on: NCI-H23 lung
NCI-H460 lung = tested on: NCI-H460 lung
OVCAR-3 ovarian = tested on: OVCAR-3 ovarian
OVCAR-4 ovarian = tested on: OVCAR-4 ovarian
OVCAR-5 ovarian = tested on: OVCAR-5 ovarian
OVCAR-8 ovarian = tested on: OVCAR-8 ovarian
RPMI-8226 leukemia = tested on: RPMI-8226 leukemia
RXF 393 renal = tested on: RXF 393 renal
RXF-631 renal = tested on: RXF-631 renal
SF-268 CNS = tested on: SF-268 CNS
SF-295 CNS = tested on: SF-295 CNS
SF-539 CNS = tested on: SF-539 CNS
SK-MEL-2 melanoma = tested on: SK-MEL-2 melanoma
SK-MEL-28 melanoma = tested on: SK-MEL-28 melanoma
SK-MEL-5 melanoma = tested on: SK-MEL-5 melanoma
SK-OV-3 ovarian = tested on: SK-OV-3 ovarian
SN12C renal = tested on: SN12C renal
SNB-19 CNS = tested on: SNB-19 CNS
SNB-75 CNS = tested on: SNB-75 CNS
SW-620 colon = tested on: SW-620 colon
TK-10 renal = tested on: TK-10 renal
U251 CNS = tested on: U251 CNS
UACC-257 melanoma = tested on: UACC-257 melanoma
UACC-62 melanoma = tested on: UACC-62 melanoma
UO-31 renal = tested on: UO-31 renal
XF 498 CNS = tested on: XF 498 CNS
BT-549 breast = tested on: BT-549 breast
DU-145 prostate = tested on: DU-145 prostate
HCT-116 colon = tested on: HCT-116 colon
HOP-92 NSCLC = tested on: HOP-92 NSCLC
HS 578T breast = tested on: HS 578T breast
HT29 colon = tested on: HT29 colon
KM20L2 colon = tested on: KM20L2 colon
M19-MEL melanoma = tested on: M19-MEL melanoma
MCF7 breast = tested on: MCF7 breast
MDA-MB-231 breast = tested on: MDA-MB-231 breast
MDA-MB-435 = tested on: MDA-MB-435
MDA-N = tested on: MDA-N
NCI-H226 lung = tested on: NCI-H226 lung
NCI-H522 lung = tested on: NCI-H522 lung
NCI/ADR-RES ovarian = tested on: NCI/ADR-RES ovarian
PC-3 prostate = tested on: PC-3 prostate
SNB-78 CNS = tested on: SNB-78 CNS
SR leukemia = tested on: SR leukemia
T-47D breast = tested on: T-47D breast

O=[N+]([O-])c1ccc(C[P+]2(c3ccccc3)CCCCC2)cc1 (tested in a mixture with another compound)
TGI (786-0 renal): > 100 µM
TGI (A498 renal): > 100 µM
TGI (A549 NSCLC): > 100 µM
TGI (ACHN renal): > 100 µM
TGI (CAKI-1 renal): > 100 µM
TGI (CCRF-CEM leukemia): > 100 µM
TGI (COLO 205 colon): > 100 µM
TGI (DLD-1 colon): > 100 µM
TGI (DMS 114 small cell lung): > 100 µM
TGI (DMS 273 small cell lung): > 100 µM
TGI (EKVX NSCLC): > 100 µM
TGI (HCC-2998 colon): > 100 µM
TGI (HCT-15 colon): > 100 µM
TGI (HL-60(TB) leukemia): > 100 µM
TGI (HOP-18 NSCLC): 65.8 µM
TGI (HOP-62 NSCLC): > 100 µM
TGI (IGROV1 ovarian): > 100 µM
TGI (K-562 leukemia): > 100 µM
TGI (KM12 colon): > 100 µM
TGI (LOX IMVI melanoma): > 100 µM
TGI (LXFL 529 NSCLC): > 100 µM
TGI (M14 melanoma): > 100 µM
TGI (MALME-3M melanoma): > 100 µM
TGI (MOLT-4 leukemia): > 100 µM
TGI (NCI-H23 lung): > 100 µM
TGI (NCI-H460 lung): > 100 µM
TGI (OVCAR-3 ovarian): > 100 µM
TGI (OVCAR-4 ovarian): > 100 µM
TGI (OVCAR-5 ovarian): > 100 µM
TGI (OVCAR-8 ovarian): > 100 µM
TGI (RPMI-8226 leukemia): > 100 µM
TGI (RXF 393 renal): > 100 µM
TGI (RXF-631 renal): > 100 µM
TGI (SF-268 CNS): > 100 µM
TGI (SF-295 CNS): > 100 µM
TGI (SF-539 CNS): > 100 µM
TGI (SK-MEL-2 melanoma): > 100 µM
TGI (SK-MEL-28 melanoma): > 100 µM
TGI (SK-MEL-5 melanoma): 84.2 µM
TGI (SK-OV-3 ovarian): > 100 µM
TGI (SN12C renal): > 100 µM
TGI (SNB-19 CNS): > 100 µM
TGI (SNB-75 CNS): > 100 µM
TGI (SW-620 colon): > 100 µM
TGI (TK-10 renal): > 100 µM
TGI (U251 CNS): > 100 µM
TGI (UACC-257 melanoma): > 100 µM
TGI (UACC-62 melanoma): > 100 µM
TGI (UO-31 renal): > 100 µM
TGI (XF 498 CNS): > 100 µM

COc1ccc2nc3cc(Cl)ccc3c(Nc3ccccc3-c3ccccc3Nc3c4ccc(Cl)cc4nc4ccc(OC)cc34)c2c1
TGI (786-0 renal): > 59 µM
TGI (A498 renal): 97.5 µM
TGI (A549 NSCLC): > 100 µM
TGI (ACHN renal): > 59.2 µM
TGI (BT-549 breast): 42.2 µM
TGI (CAKI-1 renal): > 88.1 µM
TGI (CCRF-CEM leukemia): > 49.2 µM
TGI (COLO 205 colon): > 88 µM
TGI (DLD-1 colon): > 47.3 µM
TGI (DMS 273 small cell lung): > 54.9 µM
TGI (DU-145 prostate): > 100 µM
TGI (EKVX NSCLC): > 100 µM
TGI (HCC-2998 colon): > 67.5 µM
TGI (HCT-116 colon): > 100 µM
TGI (HCT-15 colon): > 66.9 µM
TGI (HL-60(TB) leukemia): 16.8 µM
TGI (HOP-18 NSCLC): > 100 µM
TGI (HOP-62 NSCLC): > 94.9 µM
TGI (HOP-92 NSCLC): > 82.5 µM
TGI (HS 578T breast): > 100 µM
TGI (HT29 colon): 55.7 µM
TGI (IGROV1 ovarian): > 71.1 µM
TGI (K-562 leukemia): 59.3 µM
TGI (KM12 colon): > 100 µM
TGI (KM20L2 colon): > 81.4 µM
TGI (LOX IMVI melanoma): 47.4 µM
TGI (LXFL 529 NSCLC): > 50.5 µM
TGI (M14 melanoma): > 87.5 µM
TGI (M19-MEL melanoma): > 93.3 µM
TGI (MALME-3M melanoma): 68.6 µM
TGI (MCF7 breast): > 100 µM
TGI (MDA-MB-231 breast): > 100 µM
TGI (MDA-MB-435): > 100 µM
TGI (MDA-N): 24.7 µM
TGI (MOLT-4 leukemia): > 69.4 µM
TGI (NCI-H226 lung): > 73.4 µM
TGI (NCI-H23 lung): > 100 µM
TGI (NCI-H460 lung): 98.9 µM
TGI (NCI-H522 lung): 32 µM
TGI (NCI/ADR-RES ovarian): > 100 µM
TGI (OVCAR-3 ovarian): > 78.4 µM
TGI (OVCAR-4 ovarian): 81.6 µM
TGI (OVCAR-5 ovarian): > 85.9 µM
TGI (OVCAR-8 ovarian): > 100 µM
TGI (PC-3 prostate): 63 µM
TGI (RPMI-8226 leukemia): > 47.7 µM
TGI (RXF 393 renal): > 53.5 µM
TGI (RXF-631 renal): > 100 µM
TGI (SF-268 CNS): > 72.7 µM
TGI (SF-295 CNS): > 76.2 µM
TGI (SF-539 CNS): > 67.2 µM
TGI (SK-MEL-2 melanoma): > 73.7 µM
TGI (SK-MEL-28 melanoma): > 86.6 µM
TGI (SK-MEL-5 melanoma): 30.7 µM
TGI (SK-OV-3 ovarian): > 100 µM
TGI (SN12C renal): > 84.4 µM
TGI (SNB-19 CNS): > 100 µM
TGI (SNB-75 CNS): > 72 µM
TGI (SNB-78 CNS): > 100 µM
TGI (SR leukemia): > 66.8 µM
TGI (SW-620 colon): > 68.2 µM
TGI (T-47D breast): 75.4 µM
TGI (TK-10 renal): > 100 µM
TGI (U251 CNS): > 93.5 µM
TGI (UACC-257 melanoma): > 46.4 µM
TGI (UACC-62 melanoma): > 66.3 µM
TGI (UO-31 renal): > 100 µM
TGI (XF 498 CNS): > 76.2 µM
